Source: patent US8530419B2, “Process for the synchronization of ovulation for timed breeding without heat detection” (priority 2003, dated 2013)

What was measured:
Assay type in all cases: in vivo, swine
[1] = system: ovariectomized estrogen primed gilt; assay: Dose response study of LH release in ovariectomized estrogen primed gilt model (RIA); settings: single injection of 50 mcg deslorelin in SAIB
Protocol: A dose response study was performed using deslorelin in SAIB in an ovariectomized estrogen primed gilt model (Barb, et at (1999) Proceed. Int'l. Symp. Control, Rel. Bioact. Mater., 26).

postpartum sows [2] = assay: Litter size after deslorelin treatment at three farm sites (Example 4); settings: Tables 3, 4 and 5; regardless of estrus detection
Text: Postpartum sows were randomly distributed into three different groups comprised of Controls, Treatment 1, and Treatment 2, with the exception of Site 3, which was divided into two groups, Control and Treatment 2. Control sows were detected for estrus following weaning, and bred following the normal standard operating procedures for the farms on which they resided. Treatment 1 sows were detected for estrus following weaning, and received a 50 mcg dose of deslorelin in the morning when standing and were bred by AI 4 hours later and again at 24+/−2 hours later. Treatment 2 sows received a 50 mcg dose of deslorelin in SAIB at 96 or 120 hours post-weaning and were bred with a single insemination 28+/−2 hours later with no regard to estrus detection.

postpartum sows [3] = assay: Timed deslorelin injection 96 hours post-weaning, single timed insemination without estrus detection (Example 3)
Protocol: Approximately 170 postpartum sows were randomly divided into two equal groups comprised of controls and treated. Following weaning, the controls were detected for estrus and bred following the normal standard operating procedures for the farms on winch they resided. The treated sows received a 50 mcg dose of deslorelin in SAIB at 96 hours post-weaning and were bred with a single insemination 28+/−2 hours later with no regard to estrus detection. The sows were examined for pregnancy by ultrasound at 21 days and slaughtered around 28 days post breeding. The entire reproductive tract was removed and corpora lutea and embryos were counted.

CCNC(=O)[C@@H]1CCCN1C(=O)[C@H](CCCN=C(N)N)NC(=O)[C@H](CC(C)C)NC(=O)[C@@H](Cc1c[nH]c2ccccc12)NC(=O)[C@H](Cc1ccc(O)cc1)NC(=O)[C@H](CO)NC(=O)[C@H](Cc1c[nH]c2ccccc12)NC(=O)[C@H](Cc1cnc[nH]1)NC(=O)[C@@H]1CCC(=O)N1 [Deslorelin, deslorelin]
time at which LH returned to base level [1]: ≤ 18 h | LH peak ([1]; compared to Hansel et al. (1973)): about twice normal value | litter sizes (in words) (postpartum sows [2]): normal litter sizes | Pregnancy Rate (postpartum sows [3]; 50 mcg in SAIB at 96 hours post-weaning, single insemination 28+/-2 hours later, no estrus detection): 71% | Embryo Survival (postpartum sows [3]; 50 mcg in SAIB at 96 hours post-weaning, slaughtered around 28 days post breeding): 64% | pregnancy rates (in words) (postpartum sows [3]; single timed injection post-weaning, single timed insemination, no estrus detection): normal pregnancy rates were attained
